For one assay, the target named is human MASP2 (Homo sapiens (Human), UniProt O00187). As to the kind of experiment: Biochemical human MASP2 assay (FRET substrate). The note with it: Average IC50; recombinant human MASP2; read-out: human MASP2 IC50. In outline: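 IC50 came from % inhibition across compound concentrations, with fluorescence (ex 340 nm, em 490 nm) read after 60-120 min at 32 C. Substrate was a DABCYL FRET peptide, added as a 60 μM solution, cleaved by HEK293-expressed, Ni-NTA-purified mature recombinant human MASP2.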

A further assay deals with rat MASP2 (Rattus norvegicus (Rat), UniProt Q9JJS8). Put plainly: Biochemical rat MASP2 assay (FRET substrate). The note with it: Average IC50; recombinant rat MASP2; read-out: rat MASP2 IC50. The text has this:
The MASP1 or MASP2 expression vectors were transfected into the HEK293 (ATCC No. CRL-1573) cell line using Lipofectamine LTX® Reagent (Thermo-Fischer), as described by the manufacturer. […] The MASP1 and M[…] were purified from the conditioned media by affinity chromatography on Ni-NTA Superflow resin (Qiagen) as described by the manufacturer.

The target in the next assay is human MASP1 (Homo sapiens (Human), UniProt P48740). Put plainly: Biochemical human MASP1 assay (FRET substrate). The note with it: Average IC50; recombinant human MASP1; read-out: human MASP1 IC50. In short, it runs like this: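 IC50 derived from % inhibition versus compound concentration, with fluorescence increase read at 320/420 nm after 60-120 min at 32 C. Enzyme: HEK293-secreted, His-tagged human MASP1 fragment 297-699 at 20 nM in HEPES pH 8,0 buffer with NaCl, CHAPS, glutathione; substrate ABZ-peptide-Lys(Dnp)-NH2 added as 20 μM solution.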

The subject of assay [1] is Human C3-DEPOSITION SERUM. As to the kind of experiment: C3 deposition assay, human serum on mannan-coated plates. In kind it is biochemical. Conditions: Average IC50, read-out: Human C3-DEPOSITION SERUM IC50. In outline:
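Plates coated overnight at 4° C with S. cerevisiae mannan (10 μg/mL, pH 9.6), blocked with 1% BSA in TBS 2 h at 37° C; washes in TBS/0.05% Tween 20/5 mM CaCl2. Antibodies diluted in wash buffer with 0.5% BSA. Colorimetric read-out at 450 nm.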

Another assay has as its target rat MASP1 (Rattus norvegicus (Rat), UniProt Q8CHN8). As to the kind of experiment: Biochemical rat MASP1 assay (FRET substrate). Conditions: Average IC50; recombinant rat MASP1; read-out: rat MASP1 IC50. The text has this:
A truncated cDNA sequence of rat MASP1encoding the fragment corresponding to the amino acids 302-704 with a C-terminal His Tag and N-terminal Ig-kappa secretion signal (SEQ ID No: 4) was subcloned into the mammalian expression vector pcDNA3.1 (Invitrogen).
The MASP1 or MASP2 expression vectors were transfected into the HEK293 (ATCC No. CRL-1573) cell line using Lipofectamine LTX® Reagent (Thermo-Fischer), as described by the manufacturer. The mature form of the recombinant rat MASP1 and MASP2 proteases were secreted into the culture medium. The MASP1 and MASP2 proteins were purified from the conditioned media by affinity chromatography on Ni-NTA Superflow resin (Qiagen) as described by the manufacturer.
4.2 Biochemical Rat MASP1 Assay.
Recombinant rat MASP1 enzyme produced in the HEK 293 cells was diluted in the reaction buffer (50 mM HEPES pH 8,0; 100 mM NaCl; 0,01% CHAPS; 0.5 mM Gluthathione) to the concentration of 4 nM and 25 μl was transferred into each single well of 384-well white microtiter plate (Greiner Bio One 781075). 1 μl of the inhibitor compound solution (dissolved in DMSO, at the corresponding concentration) or pure DMSO as a control was added to the same wells. The enzymatic reaction was initiated by addition of 25 μl of 40 μM solution of the FRET substrate Dabcyl-[…]-Glu(Edans)-NH2; (Dabcyl-4-((4-(dimethylamino)phenyl)azo)benzoic acid; Edans-5-[(2-Aminoethyl) amino]naphthalene-1-sulfonyl; custom synthesis by Jerini Peptide Technologies, Berlin) in the reaction buffer. The microtiter plate was incubated for 60-120 min at the temperature of 32 C. The increase of fluorescence intensity was measured in appropriate fluorescence plate reader (e.g. TECAN Ultra) using excitation wavelength of 340 nm and emission wavelength of 490 nm. IC50 values were calculated from percentage of inhibition of rat […] activity as a function of test compound concentration.

*1 amine or outer side, *2 acyl side, *3 side chain or, on linkers, in order; H or OH if unused. Where a SMILES comes first, the peptide text is derived from it. Bridges are numbered along the chain shown (N, C = ends). [ ]: non-standard residue; d: D form. Oic = O=C(O)[C@@H]1C[C@@H]2CCCC[C@@H]2N1; Adipoyl = O=C(CCCCC(=O)[*:2])[*:1]; tBuAla = CC(C)(C)C[C@H](N)C(=O)O; Pen = CC(C)(S)[C@H](N)C(=O)O; Dap = NC[C@H](N)C(=O)O; Ahx = NCCCCCC(=O)O; Sar = CNCC(=O)O

Chain of human MASP2 (O00187 other isoform, or with tags, fused parts or gaps): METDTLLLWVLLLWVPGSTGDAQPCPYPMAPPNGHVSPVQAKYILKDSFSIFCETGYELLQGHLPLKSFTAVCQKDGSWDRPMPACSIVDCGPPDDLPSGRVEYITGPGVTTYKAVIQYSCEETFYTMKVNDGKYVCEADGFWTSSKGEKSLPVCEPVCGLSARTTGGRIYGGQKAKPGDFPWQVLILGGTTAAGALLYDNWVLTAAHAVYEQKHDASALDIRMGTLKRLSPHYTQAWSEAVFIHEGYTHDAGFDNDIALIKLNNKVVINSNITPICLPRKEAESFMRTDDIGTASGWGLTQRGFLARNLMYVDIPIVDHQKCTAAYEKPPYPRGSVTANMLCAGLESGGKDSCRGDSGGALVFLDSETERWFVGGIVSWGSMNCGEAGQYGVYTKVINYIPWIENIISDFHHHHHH
Chain of rat MASP1 (Q8CHN8 other isoform, or with tags, fused parts or gaps): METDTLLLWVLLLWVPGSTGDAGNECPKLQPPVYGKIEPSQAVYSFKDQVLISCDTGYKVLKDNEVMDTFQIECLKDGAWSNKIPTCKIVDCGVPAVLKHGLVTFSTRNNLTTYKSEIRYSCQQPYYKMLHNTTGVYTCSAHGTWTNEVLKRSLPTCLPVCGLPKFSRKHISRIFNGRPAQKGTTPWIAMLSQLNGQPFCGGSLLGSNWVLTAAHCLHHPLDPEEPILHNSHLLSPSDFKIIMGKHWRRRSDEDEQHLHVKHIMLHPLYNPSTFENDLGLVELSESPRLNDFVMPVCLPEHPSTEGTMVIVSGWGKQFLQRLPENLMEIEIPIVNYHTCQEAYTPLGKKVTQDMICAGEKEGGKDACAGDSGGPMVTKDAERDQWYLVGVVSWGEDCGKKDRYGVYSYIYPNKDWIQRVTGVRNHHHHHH
Chain of human MASP1 (P48740 other isoform, or with tags, fused parts or gaps): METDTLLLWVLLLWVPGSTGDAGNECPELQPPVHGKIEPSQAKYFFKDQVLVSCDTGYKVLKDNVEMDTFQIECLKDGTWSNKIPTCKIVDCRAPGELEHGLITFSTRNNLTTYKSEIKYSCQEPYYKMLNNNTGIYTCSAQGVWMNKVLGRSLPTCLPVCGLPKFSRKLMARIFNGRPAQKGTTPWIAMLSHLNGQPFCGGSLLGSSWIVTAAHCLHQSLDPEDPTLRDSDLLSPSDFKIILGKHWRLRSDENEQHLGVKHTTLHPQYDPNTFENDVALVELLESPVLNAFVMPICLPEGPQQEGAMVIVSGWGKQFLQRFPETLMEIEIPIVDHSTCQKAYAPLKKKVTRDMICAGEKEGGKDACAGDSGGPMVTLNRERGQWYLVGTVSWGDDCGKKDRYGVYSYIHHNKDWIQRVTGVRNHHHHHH
Chain of rat MASP2 (Q9JJS8 other isoform, or with tags, fused parts or gaps): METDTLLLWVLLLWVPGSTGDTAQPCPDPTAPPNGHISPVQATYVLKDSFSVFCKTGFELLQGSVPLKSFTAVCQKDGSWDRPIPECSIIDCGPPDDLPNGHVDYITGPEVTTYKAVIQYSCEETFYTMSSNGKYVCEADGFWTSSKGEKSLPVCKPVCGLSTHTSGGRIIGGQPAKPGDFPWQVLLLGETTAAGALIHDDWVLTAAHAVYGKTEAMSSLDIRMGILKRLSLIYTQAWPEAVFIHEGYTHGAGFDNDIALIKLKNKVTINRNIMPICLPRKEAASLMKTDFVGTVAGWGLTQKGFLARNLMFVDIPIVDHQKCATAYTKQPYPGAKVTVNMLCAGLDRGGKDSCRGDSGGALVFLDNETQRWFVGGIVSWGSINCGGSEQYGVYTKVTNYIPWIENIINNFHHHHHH

Turning to `CC[C@H](C)[C@@H]1NC(=O)CN(C)C(=O)CCCCCNC(=O)[C@@H]2CCCN2C(=O)[C@H]([C@@H](C)CC)NC(=O)[C@H]2NC(=O)[C@H]([C@@H](C)CC)NC(=O)[C@@H]3CCCN3C(=O)[C@@H]3CCCN3C(=O)[C@H](CC(C)(C)C)NC(=O)[C@H](CO)NC(=O)[C@H](CCCNC(=N)N)NC(=O)[C@H](CO)NC(=O)[C@H](CSSC2(C)C)NC1=O` [Example 54, N-{3-[(6S,9S,12S,15S,18R,21S,33aS,39S,42R,45S,47aS,52aS)-21,39,45-tri[(2S)-butan-2-yl]-6-(2,2-dimethylpropyl)-9,15-bis(hydroxymethyl)-25,53,53-trimethyl-5,8,11,14,17,20,23,26,33,38,41,44,47,52-tetradecaoxopentacontahydro-1H,5H-18,42-(methanodithiomethano)tripyrrolo[2,1-c:2′,1′-o:2″,1″-r][1,4,7,10,13,16,19,22,25,28,31,34,37,40]tetradecaazacyclohexatetracontin-12-yl]propyl}guanidine], the IC50 on human MASP2 was found to be 33 nM; on rat MASP2 it was 18 nM; on human MASP1, 8.5 nM; in assay [1], 39.6 nM; on rat MASP1, 180 nM.

Turning to `CC[C@H](C)[C@@H]1NC(=O)[C@@H]2CCCN2C(=O)[C@@H]2CCCN2C(=O)[C@H](CC(C)(C)C)NC(=O)[C@H](CO)NC(=O)[C@H](CCCNC(=N)N)NC(=O)[C@H](CO)NC(=O)[C@@H]2CSSC(C)(C)[C@H](NC1=O)C(=O)N[C@@H]([C@@H](C)CC)C(=O)N1CCC[C@H]1C(=O)N1CCC[C@H]1C(=O)N[C@@H]([C@@H](C)CC)C(=O)N2` [Example 58, N-{3-[(6S,9S,12S,15S,18R,21S,23aS,28aS,34S,37R,40S,42aS,47aS)-21,34,40-tri[(2S)-butan-2-yl]-6-(2,2-dimethylpropyl)-9,15-bis(hydroxymethyl)-48,48-dimethyl-5,8,11,14,17,20,23,28,33,36,39,42,47-tridecaoxotetratetracontahydro-1H,5H,28H-18,37-(methanodithiomethano)tetrapyrrolo[1,2-a:1′,2′-d:1″,2″-p:1′″,2′″-s][1,4,7,10,13,16,19,22,25,28,31,34,37]tridecaazacyclononatriacontin-12-yl]propyl}guanidine] (cyclo(CSRS[tBuAla]PPI[Pen]IPPI); disulfide 1-9), the IC50 came to 650 nM at human MASP2; 46 nM at rat MASP2; 9 nM at human MASP1; 81.7 nM in assay [1]; 110 nM on rat MASP1.

In the case of `CC[C@H](C)[C@@H]1NC(=O)CCCCC(=O)NC[C@@H](C(N)=O)NC(=O)[C@H](CC(=O)O)NC(=O)[C@@H]2CCCN2C(=O)[C@H]([C@@H](C)CC)NC(=O)[C@H]2NC(=O)[C@H]([C@@H](C)CC)NC(=O)[C@@H]3CCCN3C(=O)[C@@H]3CCCN3C(=O)[C@H](CC(C)(C)C)NC(=O)[C@H](CO)NC(=O)[C@H](CCCNC(=N)N)NC(=O)[C@H](CO)NC(=O)[C@H](CSSC2(C)C)NC1=O` [Example 60] (ICSRS[tBuAla]PPI[Pen]IPD[Dap]-NH2; disulfide 2-10; linker N-14 via Adipoyl), the IC50 on human MASP2 was found to be 5.4 nM; on rat MASP2, 13 nM; on human MASP1 it was 58 nM; in assay [1], 20.5 nM; at rat MASP1 it was 330 nM.

On to `CC[C@H](C)[C@@H]1NC(=O)CN(C)C(=O)CCCCCNC(=O)[C@H]([C@@H](C)CC)NC(=O)[C@H]2NC(=O)[C@H]([C@@H](C)CC)NC(=O)[C@@H]3CCCN3C(=O)[C@@H]3CCCN3C(=O)[C@H](CC(C)(C)C)NC(=O)[C@H](CO)NC(=O)[C@H](CCCNC(=N)N)NC(=O)[C@H](CO)NC(=O)[C@H](CSSC2(C)C)NC1=O` [Example 64, N-{3-[(5aS,11S,14S,17S,20S,23R,26S,39S,42R,45S,47aS)-26,39,45-tri[(2S)-butan-2-yl]-11-(2,2-dimethylpropyl)-14,20-bis(hydroxymethyl)-30,48,48-trimethyl-5,10,13,16,19,22,25,28,31,38,41,44,47-tridecaoxohexatetracontahydro-5H-23,42-(methanodithiomethano)dipyrrolo[2,1-1:2′,1′-o][1,4,7,10,13,16,19,22,25,28,31,34,37]tridecaazacyclotritetracontin-17-yl]propyl}guanidine] (cyclo([Ahx][Sar]ICSRS[tBuAla]PPI[Pen]I); disulfide 4-12), for which the IC50 was 12 nM at human MASP2; 13 nM at rat MASP2; 9.4 nM at human MASP1; 17.8 nM in assay [1]; 157 nM on rat MASP1.

As for `CC[C@H](C)[C@@H]1NC(=O)[C@H](CN)NC(=O)[C@H](CN)NC(=O)[C@@H]2CCCN2C(=O)[C@H]([C@@H](C)CC)NC(=O)[C@H]2NC(=O)[C@H]([C@@H](C)CC)NC(=O)[C@@H]3C[C@@H]4CCCC[C@@H]4N3C(=O)[C@@H]3CCCN3C(=O)[C@H](CC(C)C)NC(=O)[C@H](CO)NC(=O)[C@H](CCCNC(=N)N)NC(=O)[C@H](CO)NC(=O)[C@H](CSSC2(C)C)NC1=O` [Example 89], the IC50 on human MASP2 was 91 nM; on rat MASP2 it was 64 nM; at human MASP1, 5.7 nM; in assay [1], 18.5 nM; at rat MASP1, 290 nM.

For `CC[C@H](C)[C@@H]1NC(=O)CNC(=O)[C@@H](N)CCC(=O)NC[C@@H](C(N)=O)NC(=O)[C@H](CC(=O)O)NC(=O)[C@@H]2CCCN2C(=O)[C@H]([C@@H](C)CC)NC(=O)[C@H]2NC(=O)[C@H]([C@@H](C)CC)NC(=O)[C@@H]3C[C@@H]4CCCC[C@@H]4N3C(=O)[C@@H]3CCCN3C(=O)[C@H](CC(C)C)NC(=O)[C@H](CO)NC(=O)[C@H](CCCNC(=N)N)NC(=O)[C@H](CO)NC(=O)[C@H](CSSC2(C)C)NC1=O` [Example 93] (H-EGICSRSLP[Oic]I[Pen]IPD[Dap]-NH2; lactam 1-16; disulfide 4-12), the IC50 was found to be 45 nM at human MASP2; 68 nM on rat MASP2; 35 nM on human MASP1; 274 nM in assay [1]; 410 nM at rat MASP1.

Source of the values: patent publication US20240010684A1, “MASP INHIBITORY COMPOUNDS AND USES THEREOF” (BAYER AKTIENGESELLSCHAFT, priority 2020, published 2024).
